We go through 2 molecules from PMC12373499 (Nature Metabolism, 2025).

Experiment [1] concerns the target T1, mGLP1R (Mus musculus, UniProt O35659).
T1 construct: expressed in transfected cells; host or cells: AD293 cells, transient transfection (Lipofectamine 2000)
T1 sequence (O35659 22-463): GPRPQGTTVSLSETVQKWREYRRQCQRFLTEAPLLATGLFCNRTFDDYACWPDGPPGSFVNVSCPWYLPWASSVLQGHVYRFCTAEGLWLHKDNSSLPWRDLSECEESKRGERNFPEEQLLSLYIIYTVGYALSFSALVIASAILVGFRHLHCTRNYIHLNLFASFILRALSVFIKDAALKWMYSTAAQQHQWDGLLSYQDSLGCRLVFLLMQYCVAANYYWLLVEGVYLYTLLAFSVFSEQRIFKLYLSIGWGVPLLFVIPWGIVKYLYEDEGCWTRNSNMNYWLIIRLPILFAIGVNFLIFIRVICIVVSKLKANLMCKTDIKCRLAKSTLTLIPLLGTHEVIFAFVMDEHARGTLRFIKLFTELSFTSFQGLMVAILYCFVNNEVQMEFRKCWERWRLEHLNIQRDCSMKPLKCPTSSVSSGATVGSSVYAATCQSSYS
The experiment can be described thus: HTRF cAMP assay in transiently transfected AD293 cells. Type of experiment: cell-based. The conditions noted are these: 30 min 37 °C, n = 4 independent repeats, Extended Data Table 1, read-out: mGLP1R EC50 best-fit.

Experiment [2] deals with T2, hGIPR (Homo sapiens, UniProt P48546).
T2 construct: expressed in transfected cells; host or cells: AD293 cells, transient transfection (Lipofectamine 2000)
T2 sequence (P48546 22-466): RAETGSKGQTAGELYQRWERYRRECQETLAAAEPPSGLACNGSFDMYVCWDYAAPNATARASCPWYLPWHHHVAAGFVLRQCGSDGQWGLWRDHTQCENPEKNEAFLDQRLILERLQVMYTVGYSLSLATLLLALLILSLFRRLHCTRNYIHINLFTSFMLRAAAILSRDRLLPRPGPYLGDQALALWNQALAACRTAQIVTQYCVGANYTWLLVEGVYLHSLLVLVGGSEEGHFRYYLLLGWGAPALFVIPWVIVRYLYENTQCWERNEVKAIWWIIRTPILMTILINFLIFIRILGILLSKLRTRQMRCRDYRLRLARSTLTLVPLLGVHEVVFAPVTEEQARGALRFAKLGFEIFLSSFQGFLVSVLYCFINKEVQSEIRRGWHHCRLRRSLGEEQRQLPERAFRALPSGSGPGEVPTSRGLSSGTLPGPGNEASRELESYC
Described as above. It is filed as cell-based. The conditions noted are these: 30 min 37 °C, n = 4 independent repeats, Extended Data Table 1, read-out: hGIPR EC50 best-fit. Here is the method: (§1) AD293 cells (RRID:CVCL_9804) were transiently transfected 24 h before the assay in six-well plates with plasmids encoding wild-type hGLP1R, mGLP1R, hGIPR or mGIPR using Lipofectamine 2000. AD293 cells were authenticated at source using STR profiling. Cells were detached and treated with a range of agonist concentrations in serum-free DMEM + 0.1% BSA for 30 min at 37 °C in 96-well plates, followed by the addition of lysis buffer 2 (Cisbio) at a 1:2 ratio. Lysates were further diluted 1:10 to avoid spectral interference from the higher concentrations of fluorescent ligands in the HTRF assay, and the concentration of cAMP was determined after the addition of cAMP Dynamic detection reagents (Cisbio).

Experiment [3] deals with T3, mGIPR (Mus musculus, UniProt Q0P543).
T3 construct: expressed in transfected cells; host or cells: AD293 cells, transient transfection (Lipofectamine 2000)
T3 sequence (Q0P543 19-460): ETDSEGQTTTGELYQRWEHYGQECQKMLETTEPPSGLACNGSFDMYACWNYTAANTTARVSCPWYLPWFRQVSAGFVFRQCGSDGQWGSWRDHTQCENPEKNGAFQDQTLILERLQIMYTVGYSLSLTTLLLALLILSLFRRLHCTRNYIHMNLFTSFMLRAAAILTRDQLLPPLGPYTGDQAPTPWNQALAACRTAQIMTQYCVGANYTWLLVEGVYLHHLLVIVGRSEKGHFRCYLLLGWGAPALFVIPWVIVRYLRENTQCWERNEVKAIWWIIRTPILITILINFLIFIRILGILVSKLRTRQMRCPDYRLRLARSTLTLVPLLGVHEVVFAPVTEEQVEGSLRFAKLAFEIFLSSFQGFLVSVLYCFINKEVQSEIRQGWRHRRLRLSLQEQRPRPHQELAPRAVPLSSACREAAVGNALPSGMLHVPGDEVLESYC
The description is as above. The following applies: cAMP, AD293 cells, 30 min 37 °C, n = 4 independent repeats; Extended Data Table 1; read-out: mGIPR EC50 best-fit. Type of experiment: cell-based. Here is the method:
as §1

Experiment [4] has as its target T4, GIP(1-42) (Homo sapiens, UniProt P09681).
T4 chain: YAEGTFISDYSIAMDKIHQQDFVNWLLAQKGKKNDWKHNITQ
Kind of experiment: competition.

Several values for one entry are separate records, joined by “and”; a condition that tells them apart may be missing. Equal entries are not always repeated.

On to `CC[C@H](C)[C@H](NC(=O)[C@H](CC(C)C)NC(=O)[C@H](Cc1c[nH]c2ccccc12)NC(=O)[C@H](CCC(N)=O)NC(=O)[C@@H](NC(=O)[C@H](Cc1ccccc1)NC(=O)[C@H](C)NC(=O)[C@H](CCCCNC(=O)COCCOCCNC(=O)COCCOCCNC(=O)CC[C@H](NC(=O)CCCCCCCCCCCCCCCCCCC(=O)O)C(=O)O)NC(=O)[C@H](CCC(N)=O)NC(=O)[C@H](C)NC(=O)[C@@H](NC(=O)[C@H](CCCCN)NC(=O)[C@H](CC(=O)O)NC(=O)[C@H](CC(C)C)NC(=O)C(C)(C)NC(=O)[C@@H](NC(=O)[C@H](CO)NC(=O)[C@H](Cc1ccc(O)cc1)NC(=O)[C@H](CC(=O)O)NC(=O)[C@H](CO)NC(=O)[C@@H](NC(=O)[C@H](Cc1ccccc1)NC(=O)[C@@H](NC(=O)CNC(=O)[C@H](CCC(=O)O)NC(=O)C(C)(C)NC(=O)[C@@H](N)Cc1ccc(O)cc1)[C@@H](C)O)[C@@H](C)O)[C@@H](C)CC)[C@@H](C)CC)C(C)C)C(=O)N[C@@H](C)C(=O)NCC(=O)NCC(=O)N1CCC[C@H]1C(=O)N[C@@H](CO)C(=O)N[C@@H](CO)C(=O)NCC(=O)N[C@@H](C)C(=O)N1CCC[C@H]1C(=O)N1CCC[C@H]1C(=O)N1CCC[C@H]1C(=O)N[C@@H](CO)C(N)=O` [tirzepatide], for which the figures for the EC50 in experiment [1], in experiment [2] and in experiment [3] were 29.4 nM, 0.641 nM and 112 nM, respectively.

B1: GIPR (protein)
chain: RAETGSKGQTAGELYQRWERYRRECQETLAAAEPPSGLACNGSFDMYVCWDYAAPNATARASCPWYLPWHHHVAAGFVLRQCGSDGQWGLWRDHTQCENPEKNEAFLDQRLILERLQVMYTVGYSLSLATLLLALLILSLFRRLHCTRNYIHINLFTSFMLRAAAILSRDRLLPRPGPYLGDQALALWNQALAACRTAQIVTQYCVGANYTWLLVEGVYLHSLLVLVGGSEEGHFRYYLLLGWGAPALFVIPWVIVRYLYENTQCWERNEVKAIWWIIRTPILMTILINFLIFIRILGILLSKLRTRQMRCRDYRLRLARSTLTLVPLLGVHEVVFAPVTEEQARGALRFAKLGFEIFLSSFQGFLVSVLYCFINKEVQSEIRRGWHHCRLRRSLGEEQRQLPERAFRALPSGSGPGEVPTSRGLSSGTLPGPGNEASRELESYC
In the case of B1, the Ki in experiment [4] is 13.9 nM and 9.38 nM.
